Reference: US8092841B2

Tests used:
[1] = target: T1, ERβ (Homo sapiens, UniProt Q92731); details: in the presence of ERβ
Text: (§1) Plasmid Construction. […] ERβ mutants were created with QuikChange site-directed mutagenesis kits (Stratagene), by using oligonucleotides containing the mutation. The mutants were sequenced with Sequenase kits (Amersham Pharmacia) to verify the presence of the mutation.

[2] = target: T1, ERβ; experiment: TNF-RE tkLuc repression, U2OS cells with ERβ; type: cell-based; design: expressed in transfected cells; host or cells: U2OS (human osteosarcoma)
[3] = system: TNF-RE tkLuc; experiment: Activation of TNF-RE tkLuc reporter (Example 2); type: cell-based; details: for activation of TNF-RE tkLuc by antiestrogens: in contrast to E2
Text: as §1

[4] = system: breast cancer; details: among the 5129 women in the raloxifene treatment group, median follow-up of 40 months; cited from earlier work
[5] = system: breast cancer; details: five years of tamoxifen therapy; cited from earlier work
[6] = system: breast cancer; details: women at high risk for breast cancer; cited from earlier work

T1 sequence (Q92731 whole entry): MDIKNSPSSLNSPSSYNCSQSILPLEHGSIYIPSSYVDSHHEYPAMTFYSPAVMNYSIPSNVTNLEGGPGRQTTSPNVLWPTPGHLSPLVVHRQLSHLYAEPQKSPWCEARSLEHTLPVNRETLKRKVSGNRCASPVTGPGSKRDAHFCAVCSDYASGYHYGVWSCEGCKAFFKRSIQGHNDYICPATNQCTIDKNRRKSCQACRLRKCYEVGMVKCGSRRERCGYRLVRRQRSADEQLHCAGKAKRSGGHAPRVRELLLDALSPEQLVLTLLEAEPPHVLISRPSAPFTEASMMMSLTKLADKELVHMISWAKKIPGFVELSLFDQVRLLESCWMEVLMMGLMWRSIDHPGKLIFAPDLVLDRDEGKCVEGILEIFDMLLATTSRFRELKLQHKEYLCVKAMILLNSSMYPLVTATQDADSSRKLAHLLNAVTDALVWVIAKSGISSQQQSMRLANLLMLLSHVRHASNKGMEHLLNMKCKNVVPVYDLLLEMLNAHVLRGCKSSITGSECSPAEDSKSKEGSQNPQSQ

C[C@]12CC[C@@H]3c4ccc(O)cc4CC[C@H]3[C@@H]1CC[C@@H]2O [E2, estradiol]
repression of TNF-α activation of TNF-RE tkLuc [1]: 60-80% | repression of TNF-α activation of TNF-RE [2]: 100%

C[C@]12CC[C@@H]3c4ccc(O)cc4C[C@@H](CCCCCCCCC[S+]([O-])CCCC(F)(F)C(F)(F)F)[C@H]3[C@@H]1CC[C@@H]2O (stereo partly shown) [ICI 182, 780]
activation of TNF-RE tkLuc by antiestrogens [3]: 2 fold

O=C(c1ccc(OCCN2CCCCC2)cc1)c1c(-c2ccc(O)cc2)sc2cc(O)ccc12 [raloxifene]
activation of TNF-RE tkLuc by antiestrogens [3]: 2 fold | cases of breast cancer [4]: 13 cases

CC/C(=C(\c1ccccc1)c1ccc(OCCN(C)C)cc1)c1ccccc1 [tamoxifen]
activation of TNF-RE tkLuc by antiestrogens [3]: 2 fold | reduction of mortality from breast cancer [5]: 22% | reduction of the risk of recurrences [5]: 42% | reduction of the risk of primary invasive breast cancer [6]: 49%

TNF-α
activation of 3 copies of the TNF-RE (−125 to −82) upstream of the tk promoter ([3]; TNF-RE tkLuc): 5-10 fold
